{
  "source": "paper PMC10045663",
  "about": "“Synthesis, In Vitro Biological Evaluation of Antiproliferative and Neuroprotective Effects and In Silico Studies of Novel 16E-Arylidene-5α,6α-epoxyepiandrosterone Derivatives” (Biomedicines, 2023)",
  "format_in_all_cases": "cell-based",
  "key": {"[1]": {"system": "MCF-7 cells", "test": "Nuclear area analysis with ImageJ (Hoechst 33342-stained nuclei)", "conditions": "MCF-7, 1 and 10 µM, 48 h", "excerpt": "(§1) The nuclear measurements were achieved by converting 16-bit photomicrographs of Hoechst 33342-stained nuclei in different studied conditions into 8-bit images. Then, these imagens were autothresholded to binary photos using the default “Make binary” function of ImageJ (v. 1.49) software (NIH Image, Bethesda, MD, USA). Cell nuclei that are touching were separated and fragments were discarded based on area through “Analyze Particle” function. This function also provides several other information, such as nuclear area (NA), circumference, and form factor [26]. Furthermore, the “Nearest Neighbor Distance” (NND) was determined. This function allows measuring the distance between each cell nucleus and the nearest ones, providing information about cell distribution."}, "[2]": {"system": "MCF-7 cells", "test": "Nearest neighbor distance analysis with ImageJ", "conditions": "MCF-7, 1 and 10 µM, 48 h", "excerpt": "as §1"}, "[3]": {"system": "MCF-7 cells", "test": "PI incorporation (propidium iodide staining)", "conditions": "48 h", "experimental": "After 48 h of being seeded at the same conditions explained in the previous (Section 2.2.4), MCF-7 cells were treated with the steroidal derivatives 19 and 5-FU at 1 and 10 µM and maintained in culture for 48 h. Untreated cells were also used as a negative control. Subsequently, cells were incubated with 20 µL/per well of a propidium iodide solution (PI; 1 mg/mL in PBS; Sigma-Aldrich Co. LLC) for 25 min at 37 °C. Then, the medium was removed, and the cells were fixed with 10% formalin for 15 min at room temperature. Cells were washed three times with PBS and incubated with 30 µL/per coverslip of Hoechst-33342 (1:500) for 10 min. After incubation, cells were washed three times with PBS. Coverslips were mounted on a drop of the fluoroshield mounting medium on a microscope slide, left to dry for 24 h, and then visualized in a Zeiss Axio Imager A1 microscope with the 40× objective."}, "[4]": {"system": "N27 (rat dopaminergic neuronal cells)", "test": "MTT cell proliferation assay, N27 cells", "conditions": "72 h, non-tumoral cells, read-out: Estimated IC50, N27"}},
  "note": "pIC50: −log10 of the molar value.",
  "data": [
    {"substance": "(E)-16-(2,3-Dichlorobenzylidene)-3-hydroxy-5α ,6α -epoxy-10,13-dimethyl-1,3,4,7,8,9,10,11,12,13,15,16-dodecahydro-2H-cyclopenta[α ]phenanthren-17(14H)-one [Compound 19]", "values": [
      {"measurement": "nuclear area (NA) relative to the control", "setting": "[1]", "result": "decreased significantly"},
      {"measurement": "cell distribution (nearest neighbor distance, NND)", "setting": "[2]", "result": "more random distribution with nuclei more spaced"},
      {"measurement": "PI-positive cells relative to the negative control", "setting": "[3]; MCF-7, 1 µM", "result": "no significant effect"},
      {"measurement": "PI-positive cells relative to the negative control", "setting": "[3]; MCF-7, 10 µM", "result": "significantly increase"},
      {"measurement": "percentage of PI incorporation compared with the positive control (5-FU)", "setting": "[3]; MCF-7, 10 µM", "result": "about three times"},
      {"measurement": "pIC50", "setting": "[4]", "result": 4.88}
    ]}
  ]
}
